Source: ChEMBL document CHEMBL3046841, “The synthesis and screening of the antimicrobial activity of some novel 3-(furan-2-yl)-1-(aryl)-3-(phenylthio) propan-1-one derivatives” (2011)
In brackets after ≈: the same amount, converted by molar mass.

Key:
Assay type in all cases: functional
[1] = system: Proteus vulgaris; assay: Antimicrobial activity against Proteus vulgaris KUEN 1329 after 24 hr by serial microdilution method; conditions: KUEN 1329, 24 h
[2] = system: Pseudomonas aeruginosa; assay: Antimicrobial activity against Pseudomonas aeruginosa ATCC 27859 after 24 hr by serial microdilution method; conditions: ATCC 27859, 24 h
[3] = system: Bacillus cereus; assay: Antimicrobial activity against Bacillus cereus DSM 4312 at 105 ug/disk after 24 hr by disk diffusion method; conditions: DSM 4312, 24 h, read-out: IZ
[4] = system: Staphylococcus aureus; assay: Antimicrobial activity against Staphylococcus aureus ATCC 29213 after 24 hr by serial microdilution method; conditions: ATCC 29213, 24 h
[5] = system: Cyberlindnera jadinii; assay: Antimicrobial activity against Cyberlindnera jadinii KUEN 1031 serial microdilution method; conditions: Williopsis jadinii
[6] = system: Salmonella enteritidis; assay: Antimicrobial activity against Salmonella enterica subsp. enterica serovar Enteritidis ATCC 13076 after 24 hr by serial microdilution method; conditions: ATCC 13076, 24 h
[7] = system: Bacillus subtilis; assay: Antimicrobial activity against Bacillus subtilis ATCC 6633 at 105 ug/disk after 24 hr by disk diffusion method; conditions: ATCC 6633, 24 h, read-out: IZ
[8] = system: Cyberlindnera jadinii; assay: Antimicrobial activity against Cyberlindnera jadinii KUEN 1031 at 105 ug/disc after 48 hr by disk diffusion method; conditions: Williopsis jadinii, KUEN 1031, 48 h; read-out: IZ
[9] = system: Proteus vulgaris; assay: Antimicrobial activity against Proteus vulgaris KUEN 1329 at 105 ug/disk after 24 hr by disk diffusion method; conditions: KUEN 1329, 24 h, read-out: IZ
[10] = system: Candida albicans; assay: Antimicrobial activity against Candida albicans ATCC 1213 by serial microdilution method
[11] = system: Salmonella enteritidis; assay: Antimicrobial activity against Salmonella enterica subsp. enterica serovar Enteritidis ATCC 13076 at 105 ug/disk after 24 hr by disk diffusion method; conditions: ATCC 13076, 24 h, read-out: IZ
[12] = system: Pseudomonas aeruginosa; assay: Antimicrobial activity against Pseudomonas aeruginosa ATCC 9027 at 105 ug/disk after 24 hr by disk diffusion method; conditions: ATCC 9027, 24 h, read-out: IZ
[13] = system: Streptococcus pyogenes; assay: Antimicrobial activity against Streptococcus pyogenes ATCC 176 after 24 hr by serial microdilution method; conditions: ATCC 176, 24 h
[14] = system: Candida albicans; assay: Antimicrobial activity against Candida albicans ATCC 1213 at 105 ug/disk after 48 hr by disk diffusion method; conditions: ATCC 1213, 48 h, read-out: IZ
[15] = system: Staphylococcus aureus; assay: Antimicrobial activity against Staphylococcus aureus ATCC 29213 at 105 ug/disc after 24 hr by disk diffusion method; conditions: ATCC 29213, 24 h, read-out: IZ
[16] = system: Bacillus cereus; assay: Antimicrobial activity against Bacillus cereus DSM 4312 after 24 hr by serial microdilution method; conditions: DSM 4312, 24 h
[17] = system: Escherichia coli; assay: Antimicrobial activity against Escherichia coli 111 after 24 hr by serial microdilution method; conditions: Escherichia coli, 111, 24 h
[18] = system: Pseudomonas aeruginosa; assay: Antimicrobial activity against Pseudomonas aeruginosa ATCC 9027 after 24 hr by serial microdilution method; conditions: ATCC 9027, 24 h
[19] = system: Pseudomonas aeruginosa; assay: Antimicrobial activity against Pseudomonas aeruginosa ATCC 27859 at 105 ug/disk after 24 hr by disk diffusion method; conditions: ATCC 27859, 24 h, read-out: IZ
[20] = system: Bacillus subtilis; assay: Antimicrobial activity against Bacillus subtilis ATCC 6633 after 24 hr by serial microdilution method; conditions: ATCC 6633, 24 h
[21] = system: Escherichia coli; assay: Antimicrobial activity against Escherichia coli 111 at 105 ug/disk after 24 hr by disk diffusion method; conditions: Escherichia coli, 111, 24 h; read-out: IZ
[22] = system: Streptococcus pyogenes; assay: Antimicrobial activity against Streptococcus pyogenes ATCC 176 at 105 ug/disc after 24 hr by disc diffusion method; conditions: ATCC 176, 24 h, read-out: IZ

SMILES	MIC [1] [mg/L]	MIC [2] [mg/L]	MIC [4] [mg/L]	MIC [5] [mg/L]	MIC [6] [mg/L]	MIC [10] [mg/L]	MIC [13] [mg/L]	MIC [16] [mg/L]	MIC [17] [mg/L]	MIC [18] [mg/L]	MIC [20] [mg/L]	zone of inhibition at 105 µg/disc [3] [mm]	zone of inhibition at 105 µg/disc [7] [mm]	zone of inhibition at 105 µg/disc [8] [mm]	zone of inhibition at 105 µg/disc [9] [mm]	zone of inhibition at 105 µg/disc [11] [mm]	zone of inhibition at 105 µg/disc [12] [mm]	zone of inhibition at 105 µg/disc [14] [mm]	zone of inhibition at 105 µg/disc [15] [mm]	zone of inhibition at 105 µg/disc [21] [mm]	further results
O=C(CC(Sc1ccccc1)c1ccco1)c1ccccc1Cl (configuration not stated)	31.2 (≈ 91.1 µM)	125 (≈ 365 µM)	7.81 (≈ 22.8 µM)	125 (≈ 365 µM)	15.6 (≈ 45.6 µM)	15.6 (≈ 45.6 µM)	15.6 (≈ 45.6 µM)	31.2 (≈ 91.1 µM)	> 125	31.2 (≈ 91.1 µM)	31.2 (≈ 91.1 µM)	11	15	13	16	18	14	16	18	–	zone of inhibition at 105 µg/disc [19]: 14 mm
O=C(CC(Sc1ccccc1)c1ccco1)c1cccc(Br)c1 (configuration not stated)	31.2 (≈ 80.7 µM)	> 125	15.6 (≈ 40.3 µM)	> 125	31.2 (≈ 80.7 µM)	> 125	31.2 (≈ 80.7 µM)	31.2 (≈ 80.7 µM)	> 125	15.6 (≈ 40.3 µM)	31.2 (≈ 80.7 µM)	13	–	14	15	16	16	16	16	–	–
O=C(CC(Sc1ccccc1)c1ccco1)c1ccccc1Br (configuration not stated)	62.5 (≈ 161 µM)	31.2 (≈ 80.7 µM)	7.81 (≈ 20.2 µM)	> 125	> 125	> 125	> 125	31.2 (≈ 80.7 µM)	62.5 (≈ 161 µM)	> 125	31.2 (≈ 80.7 µM)	12	15	15	16	15	15	17	17	10	zone of inhibition at 105 µg/disc [22]: 13 mm; zone of inhibition at 105 µg/disc [19]: 16 mm
COc1ccc(C(=O)CC(Sc2ccccc2)c2ccco2)cc1 (configuration not stated)	62.5 (≈ 185 µM)	62.5 (≈ 185 µM)	> 125	125 (≈ 369 µM)	> 125	> 125	> 125	62.5 (≈ 185 µM)	62.5 (≈ 185 µM)	62.5 (≈ 185 µM)	125 (≈ 369 µM)	–	–	12	–	–	13	12	–	10	zone of inhibition at 105 µg/disc [22]: 13 mm
COc1cccc(C(=O)CC(Sc2ccccc2)c2ccco2)c1 (configuration not stated)	31.2 (≈ 92.3 µM)	125 (≈ 369 µM)	> 125	15.6 (≈ 46.2 µM)	62.5 (≈ 185 µM)	15.6 (≈ 46.2 µM)	7.81 (≈ 23.1 µM)	62.5 (≈ 185 µM)	31.2 (≈ 92.3 µM)	> 125	62.5 (≈ 185 µM)	–	12	13	14	17	–	17	–	14	–
O=C(CC(Sc1ccccc1)c1ccco1)c1ccc(O)cc1 (configuration not stated)	7.81 (≈ 24.1 µM)	62.5 (≈ 193 µM)	31.2 (≈ 96.3 µM)	62.5 (≈ 193 µM)	62.5 (≈ 193 µM)	15.6 (≈ 48.2 µM)	7.81 (≈ 24.1 µM)	31.2 (≈ 96.3 µM)	62.5 (≈ 193 µM)	62.5 (≈ 193 µM)	31.2 (≈ 96.3 µM)	–	–	13	17	17	14	20	–	10	–
CO/N=C(\C(=O)N[C@@H]1C(=O)N2C(C(=O)O)=C(CSc3nc(=O)c(O)nn3C)CS[C@H]12)c1csc(N)n1 [CEFTRIAXONE]	15.6 (≈ 28.2 µM)	> 125	> 125	15.6 (≈ 28.2 µM)	125 (≈ 225 µM)	> 125	3.9 (≈ 7.03 µM)	> 125	> 125	15.6 (≈ 28.2 µM)	3.9 (≈ 7.03 µM)	–	–	–	–	–	–	–	–	–	–
O=C(CC(Sc1ccccc1)c1ccco1)c1cccc(Cl)c1 (configuration not stated)	31.2 (≈ 91.1 µM)	62.5 (≈ 182 µM)	31.2 (≈ 91.1 µM)	15.6 (≈ 45.6 µM)	15.6 (≈ 45.6 µM)	15.6 (≈ 45.6 µM)	31.2 (≈ 91.1 µM)	31.2 (≈ 91.1 µM)	> 125	15.6 (≈ 45.6 µM)	31.2 (≈ 91.1 µM)	11	14	15	17	19	15	17	16	–	zone of inhibition at 105 µg/disc [22]: 14 mm; zone of inhibition at 105 µg/disc [19]: 16 mm
CN(C)[C@@H]1C(O)=C(C(N)=O)C(=O)[C@@]2(O)C(O)=C3C(=O)c4c(O)cccc4[C@@](C)(O)[C@H]3C[C@@H]12 [TETRACYCLINE]	3.9 (≈ 8.78 µM)	> 125	125 (≈ 281 µM)	15.6 (≈ 35.1 µM)	7.81 (≈ 17.6 µM)	125 (≈ 281 µM)	3.9 (≈ 8.78 µM)	62.5 (≈ 141 µM)	125 (≈ 281 µM)	3.9 (≈ 8.78 µM)	15.6 (≈ 35.1 µM)	–	–	–	–	–	–	–	–	–	–

The next lines start with results.

MIC [1] [mg/L]	MIC [2] [mg/L]	MIC [4] [mg/L]	MIC [5] [mg/L]	MIC [6] [mg/L]	MIC [10] [mg/L]	MIC [13] [mg/L]	MIC [16] [mg/L]	MIC [17] [mg/L]	MIC [18] [mg/L]	MIC [20] [mg/L]	SMILES	zone of inhibition at 105 µg/disc [3] [mm]	zone of inhibition at 105 µg/disc [7] [mm]	zone of inhibition at 105 µg/disc [8] [mm]	zone of inhibition at 105 µg/disc [9] [mm]	zone of inhibition at 105 µg/disc [11] [mm]	zone of inhibition at 105 µg/disc [12] [mm]	zone of inhibition at 105 µg/disc [14] [mm]	zone of inhibition at 105 µg/disc [15] [mm]	zone of inhibition at 105 µg/disc [21] [mm]	further results
7.81 (≈ 22.8 µM)	> 125	> 125	62.5 (≈ 182 µM)	62.5 (≈ 182 µM)	62.5 (≈ 182 µM)	125 (≈ 365 µM)	31.2 (≈ 91.1 µM)	62.5 (≈ 182 µM)	> 125	> 125	O=C(CC(Sc1ccccc1)c1ccco1)c1ccc(Cl)cc1 (configuration not stated)	10	–	14	14	17	15	14	–	10	zone of inhibition at 105 µg/disc [22]: 13 mm
15.6 (≈ 44.7 µM)	> 125	> 125	7.81 (≈ 22.4 µM)	> 125	> 125	3.9 (≈ 11.2 µM)	> 125	> 125	7.81 (≈ 22.4 µM)	> 125	CC1(C)S[C@@H]2[C@H](NC(=O)[C@H](N)c3ccccc3)C(=O)N2[C@H]1C(=O)O [AMPICILLIN]	–	–	–	–	–	–	–	–	–	–
7.81 (≈ 24.1 µM)	125 (≈ 385 µM)	15.6 (≈ 48.2 µM)	7.81 (≈ 24.1 µM)	31.2 (≈ 96.3 µM)	125 (≈ 385 µM)	3.9 (≈ 12 µM)	15.6 (≈ 48.2 µM)	15.6 (≈ 48.2 µM)	> 125	15.6 (≈ 48.2 µM)	O=C(CC(Sc1ccccc1)c1ccco1)c1ccccc1O (configuration not stated)	15	17	15	18	19	14	21	16	–	zone of inhibition at 105 µg/disc [22]: 17 mm; zone of inhibition at 105 µg/disc [19]: 17 mm
15.6 (≈ 40.3 µM)	31.2 (≈ 80.7 µM)	> 125	125 (≈ 323 µM)	62.5 (≈ 161 µM)	15.6 (≈ 40.3 µM)	7.81 (≈ 20.2 µM)	62.5 (≈ 161 µM)	> 125	31.2 (≈ 80.7 µM)	31.2 (≈ 80.7 µM)	O=C(CC(Sc1ccccc1)c1ccco1)c1ccc(Br)cc1 (configuration not stated)	–	–	13	15	17	15	11	–	–	–
31.2 (≈ 92.3 µM)	62.5 (≈ 185 µM)	7.81 (≈ 23.1 µM)	125 (≈ 369 µM)	15.6 (≈ 46.2 µM)	125 (≈ 369 µM)	31.2 (≈ 92.3 µM)	31.2 (≈ 92.3 µM)	62.5 (≈ 185 µM)	31.2 (≈ 92.3 µM)	31.2 (≈ 92.3 µM)	COc1ccccc1C(=O)CC(Sc1ccccc1)c1ccco1 (configuration not stated)	10	14	14	15	18	15	17	17	13	zone of inhibition at 105 µg/disc [22]: 15 mm; zone of inhibition at 105 µg/disc [19]: 15 mm
